Consider ten compounds from PubChem BioAssay (NCI).

Holding throughout (assay): DTP human tumour cell line panel, 48 h
Experiment [1] relates to MALME-3M melanoma.
Experiment [2] concerns NCI-H460 lung.
The test system of experiment [3] is SK-OV-3 ovarian.
Experiment [4] has as its system RPMI-8226 leukemia.
The test system of experiment [5] is KM12 colon.
In experiment [6] the test system is DU-145 prostate.
For experiment [7], the system named is SNB-75 CNS.
For experiment [8], the system named is PC-3 prostate.
Experiment [9] deals with HCT-116 colon.
In experiment [10] the test system is NCI-H23 lung.
The subject of experiment [11] is M14 melanoma.

Molecules are shown by their SMILES.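 Interpolation was linear, between the two tested concentrations surrounding the appropriate level; five concentrations were tested over 48 hours in 96-well plates. Abbreviation: GI50, concentration required for 50% inhibition of growth. At the TGI there is no net growth.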

The TGI is the concentration giving total growth inhibition. Read a low TGI as more potent growth arrest. Take `O=C1CCCc2cc3c(cc21)CCC3C(=O)O` (stereo unspecified): the TGI in [1], in experiment [2], in [3], in experiment [4], in experiment [5] and in [6] was over 100 µM in each case. Besides, the TGI in [7], in [8], in [9], in experiment [10] and in [11] was over 100 µM throughout.
With `COc1cc2cc(C(=O)N3CC(CCl)c4ccc(NCCN)cc43)[nH]c2c(OC)c1OC` (stereo unspecified), the TGI in experiment [1] turned out to be 0.391 µM; in experiment [2] it was 4 µM; in [3], 1.16 µM; in experiment [4], 1.17 µM; in experiment [5] it was 1.07 µM; in experiment [6], 6.2 µM. The TGI was 0.571 µM in [7]; 2.07 µM in experiment [8]; over 32.7 µM in experiment [9]; 1.23 µM in experiment [10]; 0.716 µM in experiment [11].
In general, GI50 refers to the concentration that inhibits growth by half. Turning to `N=C1C(=N)c2ccccc2-c2ccccc21`, the TGI in experiment [1] was 2.57 µM; in experiment [2], 2.88 µM; in experiment [3], 3.07 µM; in experiment [4], over 100 µM; in [5], 3.4 µM; in experiment [6] it was 2.82 µM. Further, the TGI was found to be 3.25 µM in experiment [7]; 2.88 µM in experiment [8]; 1.2 µM in [9]; 1.92 µM in experiment [10]; 2.36 µM in [11]. Moreover, in experiment [4], the GI50 was 1.75 µM.
Take `NC1=NC(OCC2(CO)CCC2)C=C(NCC2(CO)CCC2)N1` (stereo unspecified): the TGI in experiment [1], in experiment [2], in [3], in experiment [4], in experiment [5] and in experiment [6] was over 100 µM throughout. Also, the TGI in [7], in [8], in [9], in experiment [10] and in experiment [11] was over 100 µM throughout.
Consider `Cc1ccc(S(=O)(=O)NNC(=S)Nc2cccc3ccccc23)cc1`, for which the TGI in experiment [1] was over 100 µM; in experiment [2], over 100 µM; in experiment [3] it was over 100 µM; in experiment [4], over 100 µM; in [5], 99 µM; in experiment [6], over 100 µM. Also, the TGI in experiment [7] was 77.5 µM; in [8], over 100 µM; in experiment [9], over 100 µM; in [10], over 100 µM; in [11] it was over 100 µM.
Take `Cc1ccccc1N(C)S(=O)(=O)c1ccccc1[N+](=O)[O-]`: the TGI in [1], in experiment [2], in experiment [3], in [4], in experiment [5] and in [6] was over 100 µM throughout. Further, the TGI in experiment [7], in experiment [8], in experiment [9], in experiment [10] and in experiment [11] was over 100 µM in each case.
Take `C=C1C(=O)C23CC1C[C@H](OC(C)=O)C2C1(C)C(OC(C)=O)C[C@H](O)C(C)(C)[C@H]1C(O)[C@@H]3OC(C)=O` (stereo partly specified): the TGI was 19.9 µM in [1]; over 60 µM in experiment [2]; 56.5 µM in experiment [3]; 16.4 µM in [4]; over 54.5 µM in experiment [5]; 33.2 µM in [6]. Also, the TGI in experiment [7] stood at 36.3 µM; in experiment [8], 26.5 µM; in experiment [9], 16.2 µM; in experiment [10], 26.8 µM; in experiment [11] it was 18.7 µM.
`COc1cc(-c2coc3c(OC)c(OC4OC(CO)C(O)C(O)C4O)c(OC)cc3c2=O)cc(OC)c1C` (stereo unspecified): the concentration for total growth inhibition (TGI) in [1] is 29.7 µM; in [2] it was over 70.1 µM; in experiment [3], 23.4 µM; in experiment [4], over 100 µM; in [5], 28.3 µM; in [6], 26.8 µM. Also, the total growth inhibition concentration (TGI) is 21.6 µM in [7]; over 54.3 µM in experiment [8]; over 100 µM in experiment [9]; 14.1 µM in experiment [10]; 23.2 µM in experiment [11].
For the compound `CC1N(C)C(=O)OC12CCN(CCCC(=O)c1ccc(F)cc1)CC2` (stereo unspecified), the TGI in [1], in experiment [2], in experiment [3], in experiment [4], in experiment [5] and in [6] was over 100 µM throughout. The TGI in [7], in [8], in [9], in experiment [10] and in experiment [11] was over 100 µM in each case.
For `Cc1c2c(n(CCc3ccccc3)c1C)NN=C(C#N)S2(=O)=O`, the TGI in experiment [1], in experiment [2], in experiment [3], in [4], in experiment [5] and in experiment [6] was over 100 µM in each case. Also, the TGI in experiment [7], in experiment [8], in experiment [9], in experiment [10] and in experiment [11] was over 100 µM in each case.
